≈ marks a conversion by molar mass, not a printed value. Like-named read-outs stand apart in the source and are kept apart here. No end group written: not given here.
Tests used:
[1] = tested on: lipase; conditions: cited from earlier work; for IC50 on lipase: previously reported
Description: The inhibition mechanisms of crude lipopeptide, fengycin, and surfactin on lipase catalysis were studied.

[2] = reported to cause certain side effects; cited from earlier work
Description: Dietary and lifestyle modifications such as calorie restriction and physical exercises are the common strategies adopted to control body weight; further, these methods have limited anti-obesity effects. It has previously been reported that lipase inhibition is a potential strategy for counteracting obesity. Digestive lipase hydrolyses non-absorbable dietary triglycerides to smaller absorbable molecules of monoglycerides and free fatty acids, which are absorbed by the intestine. Inhibiting digestive lipase can reduce intestinal fat absorption. Human pancreatic lipase is the main enzyme ...

[3] = target: T1, Mucor miehei lipase (Rhizomucor miehei, UniProt P19515); test: Inhibition mechanism and type of lipopeptides on lipase (activity vs enzyme concentration; Lineweaver-Burk); format: biochemical; parameters: purchased Sigma-Aldrich (St. Louis, MO); conditions: for Inhibition effect: Type: Lineweaver-Burk plot, Tris-HCl buffer, 100 µL lipase; for IC50, Calculated: calculated value of Table 2; for Inhibition effect: Mechanisms: remaining enzyme activity vs enzyme concentration, lines intersecting at the origin, fixed substrate; for Inhibition constant KI: secondary plot of 1/Vm versus inhibitor concentration
T1 sequence (P19515 95-363): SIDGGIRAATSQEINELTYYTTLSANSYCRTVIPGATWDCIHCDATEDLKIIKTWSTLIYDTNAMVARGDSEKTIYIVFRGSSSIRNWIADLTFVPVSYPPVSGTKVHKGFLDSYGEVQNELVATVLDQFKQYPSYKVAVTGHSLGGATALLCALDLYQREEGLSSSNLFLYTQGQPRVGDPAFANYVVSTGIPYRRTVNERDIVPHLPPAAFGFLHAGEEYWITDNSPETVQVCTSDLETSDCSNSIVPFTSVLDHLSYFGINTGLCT
Procedure: The inhibition mechanisms were studied by fixing the concentration of substrate and changing the lipopeptides and enzymes to monitor enzymatic reaction. The inhibition types were determined based on the Lineweaver-Burk plot[22]; this reaction system contained different concentrations of substrate and lipopeptide and 100 µL of lipase in Tris-HCl buffer. Then, the inhibition constant was calculated from a secondary plot of 1/Vm versus the inhibitor concentration.

[4] = target: T1, Mucor miehei lipase; test: Lipase inhibition (4-NPP hydrolysis, 405 nm); conditions: relative to iturin
Procedure: Lyophilised powder of Mucor miehei lipase (EC3.1.1.3), 4-Nitrophenyl palmitate (4-NPP), iturin, and surfactin were purchased from Sigma-Aldrich (St. Louis, MO). Acetonitrile, hydrochloric acid (HCl) and Tris were purchased from Sinopharm (Shanghai, China).
The lipase inhibition was determined according to the method described by Liu et al.[21] 10 µg/mL lipase in water and 7.5 mmol/L 4-NPP in acetonitrile solutions were prepared. […] The 1 mL reaction mixture contained 0.75 mM 4-NPP, 0.4 µg/mL lipase, and different concentrations of inhibitor in Tris-HCl buffer (pH 7.8). The reaction was carried out at 37 °C and the detection wavelength was set at 405 nm.

[5] = from 72 mN/m; cited from earlier work
Description: In fact, it has been reported that bacterial cyclic lipopeptides are the most popular amphiphilic molecules that are excellent surface active compounds[12]. The genus Bacillus is described as an efficient source of lipopeptide biosurfactants. The Bacillus lipopeptides are divided into three different families, including iturins, surfactins, and fengycins, ...

[6] = target: T2, Mucor miehei lipase (Mucor miehei, UniProt P19515 95-363)
T2 sequence (looked up): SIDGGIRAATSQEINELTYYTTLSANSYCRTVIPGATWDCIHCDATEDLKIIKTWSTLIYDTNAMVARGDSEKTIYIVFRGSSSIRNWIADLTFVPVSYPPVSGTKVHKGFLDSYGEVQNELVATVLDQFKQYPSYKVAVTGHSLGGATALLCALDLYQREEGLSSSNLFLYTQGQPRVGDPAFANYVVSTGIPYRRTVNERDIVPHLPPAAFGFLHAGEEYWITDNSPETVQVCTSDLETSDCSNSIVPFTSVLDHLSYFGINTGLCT

[7] = target: T2, Mucor miehei lipase; remark: listed apart in the source
[8] = target: T2, Mucor miehei lipase; test: other fluorescence titration; quenching of the intrinsic fluorescence of lipase (emission peak 338 nm) by crude lipopeptide at 0-0.457 mg/mL; Stern-Volmer and double-logarithmic plots
[9] = target: T2, Mucor miehei lipase; test: cell-based or functional assay

## O=C(O)c1ccco1 [furoic acid]
[1]
  inhibition mechanism on lipase: reversible
  IC50 on lipase: 242 µg/mL (≈ 2.16 mM)

## CCCCCCCCCCC[C@@H](C[C@@H]1OC(=O)[C@H]1CCCCCC)OC(=O)[C@H](CC(C)C)NC=O [orlistat]
[2]
  side effects: oily stools, oily spotting, and flatulence
[1]
  inhibition mechanism on lipase: irreversible

## fengycin
[3]
  Inhibition effect: Type: Competitive inhibition
  IC50, Calculated: 2 µg/mL
  Inhibition effect: Mechanisms: Reversible
  Inhibition constant KI: 1 µg/mL
[3]; listed as fengycin
  Inhibition effect: Type: competitive
[4]
  stronger lipase inhibition activity than iturin: about 10 -fold

## surfactin
[3]
  Inhibition effect: Type: Competitive inhibition
  IC50, Calculated: 1 µg/mL
  Inhibition effect: Mechanisms: Reversible
  Inhibition constant KI: 1 µg/mL
[3]; listed as surfactin
  Inhibition effect: Type: competitive
[5]
  surface tension of water lowered to: 27 mN/m
[4]
  stronger lipase inhibition activity than iturin: about 10 -fold

## O=C(O)C(=O)O [oxalic acid]
[1]
  inhibition mechanism on lipase: reversible
  IC50 on lipase: 1425 µg/mL (≈ 15.8 mM)

## iturin standard (peptide)
[6]
  IC50 of inhibition of lipase activity (4-NPP hydrolysis): 56 µg/mL

## purified fengycin from Bacillus velezensis FJAT-52631 (peptide)
[7]
  IC50 (calculated) of inhibition of lipase activity: 2 µg/mL
  IC50 (measured) of inhibition of lipase activity (4-NPP hydrolysis): 5 µg/mL

## crude lipopeptide from Bacillus velezensis FJAT-52631
[7]
  IC50 (calculated) of inhibition of lipase activity: 8 µg/mL
  IC50 (measured) of inhibition of lipase activity (4-NPP hydrolysis): 11 µg/mL
[8]
  Ksv (Stern-Volmer quenching constant): 0.525 L/g
  stoichiometry N: 0.78

B1: surfactin standard (peptide)
chain: ELLVDLL
modifications: not fully specified (residues 3, 6, N-terminus, bridges); also: cyclic peptide ring with beta-hydroxy fatty acid chain, attachment not given here
[9]
  IC50 (calculated) of inhibition of lipase activity: 1 µg/mL
  IC50 (measured) of inhibition of lipase activity (4-NPP hydrolysis): 5 µg/mL

From PMC7170388, “Strong inhibitory activities and action modes of lipopeptides on lipase” (Journal of Enzyme Inhibition and Medicinal Chemistry, 2020)
